The values below are quoted from earlier work in patent publication US20070281996A1, “Creatine prodrugs, compositions and uses thereof” (XenoPort, Inc., priority 2006, published 2007).

Each structure is given as a SMILES string.

For series [1] the following is noted: following oral creatine supplementation.
For series [2] the following is noted: healthy volunteers, oral creatine administration (Dechent et al.).

Consider `CN(CC(=O)O)C(=N)N` [creatine, Creatine], for which the “duration of increase in tissue creatine phosphate levels” value in series [1] is given as above 14 days. In series [2], the “increase of cerebral creatine phosphate” value is “about 10%”.
